Reference: patent publication US6309874A, “Selection marker” (priority 1998, dated 2001)

Key:
[1] = target: T1, Leu799Cys (L799C) rat Na+,K+-ATPase a1 subunit (Rattus norvegicus, UniProt P06685, L800C); experiment: Na+,K+-ATPase-dependent ATP hydrolysis, mutated enzyme; assay type: biochemical
T1 construct: expressed in transfected cells; crude membrane fraction
Experimental: (§1) Cells were lysed by treatment with 1 mM Tris-HCl pH 7.5 on ice for 15 min and a crude membrane fraction was prepared as described (Horiuchi, A., Takeyasu, K., Mouradian, M., Jose, P and Felder, R (1993) Mol. Phamiacol. 43, 281-285). The membrane fraction was frozer, in aliquots and stored over-night at -70° C.

[2] = target: T2, wild type rat Na+,K+-ATPase a1 subunit (Rattus norvegicus, UniProt P06685); experiment: Na+,K+-ATPase-dependent ATP hydrolysis, natural enzyme; assay type: biochemical
T2 construct: expressed in transfected cells; crude membrane fraction
Experimental: as §1

[3] = system: ouabain-sensitive (endogenous) Na+,K+-ATPase; experiment: Pilot studies, ouabain-sensitive enzyme population; assay type: biochemical
Experimental: as §1

Na+,K+-ATPase = experiment: Pilot studies, total Na+,K+-ATPase of transfected cells; assay type: biochemical; conditions: 10^-5 M ouabain, 10 µM
Experimental: as §1

[4] = system: untransfected COS-7 cells; experiment: Cell attachment on fibronectin, untransfected cells; assay type: cell-based, monkey; conditions: different concentrations of ouabain, 0 to 1.0 mM, FIG. 2
Experimental: (§2) Cell attachment on fibronectin coted substrates was assayed in microtiterwells (Costar). All wells were preincubated over night at 4° C. with 5 microg/ml concentration of fibronectin. Before adding cells, each well was preincubated with 1% BSA for 30 min in 37° C. and later washed with serum free DMEM. Untransfected COS-7 cells and COS-7 cells expressing wild type or L799C Na+,K+-ATPase were grown in a 3 microCi/ml H3-thymidine containing medium supplemented with 10% fetal calf serum and harvested after approximately 72 hours at 60-80% confluence. Approximately 25,000 cells /wells were seeded in serum free DMEM. Cells were first incubated 15 min with different concentrations of oubain and then allowed to attach to fibronectin (5 μg/ml) coated substrates during 30 min of incubation in 37° C. and later washed with serum free DMEM. Radioactivity was measured in a Wallac Scintillation counter. Results are presented as % remaining radioactivity compared to untreated.

[5] = system: COS-7 cells expressing wild type Na+,K+-ATPase; experiment: Cell attachment on fibronectin, wild type transfected cells; assay type: cell-based, monkey; conditions: different concentrations of ouabain, 0 to 1.0 mM, FIG. 2
Experimental: as §2

[6] = system: COS-7 cells expressing L799C Na+,K+-ATPase; experiment: Cell attachment on fibronectin, L799C transfected cells; assay type: cell-based, monkey; conditions: different concentrations of ouabain, 0 to 1.0 mM, FIG. 2
Experimental: as §2

[7] = system: cells with mutated murine and human NKA alpha 1-subunit; conditions: read-out: IC50 for ouabain; cells with a mutation in murine and human NKA alpha 1-subunit, Cantley et al 1994; cited from earlier work
[8] = system: LLC-PK1 cells transfected with mutated (L799C and/or L801C) rat Na+,K+-ATPase alpha1 subunit; experiment: Survival study, transfected LLC-PK1 cells
[9] = system: cells transfected with mutant rat Na+,K+-ATPase a1; experiment: Cell survival in ouabain medium, mutant transfected cells
[10] = system: cells transfected with wild type rat Na+,K+-ATPase a1; experiment: Cell survival in ouabain medium, wild type transfected cells; conditions: 500 μM ouabain

In the case of C[C@@H]1O[C@@H](O[C@H]2C[C@@H](O)[C@]3(CO)[C@H]4[C@H](O)C[C@]5(C)[C@@H](C6=CC(=O)OC6)CC[C@]5(O)[C@@H]4CC[C@]3(O)C2)[C@H](O)[C@H](O)[C@H]1O [ouabain], the “inhibition of the enzyme” value ([1]; ouabain concentrations up to 2 mM) is reported as “no significant inhibition”, the activity at 2000 µM ([1]; read-out: (Na,K)-ATPase activity in percent in comparison with not treated) is reported as about 100% and the inhibition at 2000 µM [2] is reported as 85 to 90%. The IC100 ([2]; read-out: ouabain concentration that completely inhibited the enzyme population, pilot studies, ouabain-insensitive (transfected) wild type enzyme) was 5000 µM, the “ouabain concentration that completely inhibited the enzyme population” value [3] was 10^-5 M and the “share of Na+,K+-ATPase resistant to ouabain” value (Na+,K+-ATPase) was “Approximately 60%”. The “cell attachment to fibronectin coated substrates” value (from here on “cell attachment”) [4] was “loss of attachment”, the “cell attachment” value ([4]; listed as oubain) was “decreased dose dependent” and the “cell attachment” value [5] was “loss of attachment”. The “cell attachment” value [6] was “no change in attachment”, the IC50 [7] was about 5 mM and the “growing and morphological characteristics of the cells” value ([8]; as high as 500×10^-6 M ouabain) was “did not seem to alter”. The “cell survival, multiplication and exterior” value ([8]; ouabain concentrations up to 500 μM) was “survive, multiply and keep their natural exterior”, the “ouabain concentration survived by the cells” value [9] was “at least 1×10^-3 M” and the cell survival ([9]; longtime treatment with 500 μM ouabain) was “survived”. For the same compound, the cell survival [10] was “died and died within a few days”.
